According to article PMC11859928, “Design, Synthesis, and Antiproliferative Activity of Novel Indole/1,2,4-Triazole Hybrids as Tubulin Polymerization Inhibitors” (Pharmaceuticals, 2025):

Experiments:
A549/ATCC = assay: NCI one-dose assay; assay type: cell-based; conditions: Homo sapiens, Non-small cell lung cancer, read-out: Cell growth inhibition %
EKVX = assay: NCI one-dose assay; assay type: cell-based; conditions: Homo sapiens, Non-small cell lung cancer, read-out: Cell growth inhibition %
HOP-62 = assay: NCI one-dose assay; assay type: cell-based; conditions: Homo sapiens, HOP-62, Non-small cell lung cancer, read-out: Cell growth inhibition %
HS 578 T = assay: NCI one-dose assay; assay type: cell-based; conditions: Homo sapiens, Breast cancer, read-out: Cell growth inhibition %
IGROV1 = assay: NCI one-dose assay; assay type: cell-based; conditions: Homo sapiens, IGROV-1, IGROV1, Ovarian cancer, read-out: Cell growth inhibition %
MCF7 = assay: NCI one-dose assay; assay type: cell-based; conditions: Homo sapiens, MCF7, Breast cancer, read-out: Cell growth inhibition %
MDA-MB-435 = assay: NCI one-dose assay; assay type: cell-based; conditions: Homo sapiens, MDA-MB-435, Melanoma, read-out: Cell growth inhibition %
NCI-H226 = assay: NCI one-dose assay; assay type: cell-based; conditions: Homo sapiens, NCI-H226, Non-small cell lung cancer, read-out: Cell growth inhibition %
NCI-H522 = assay: NCI one-dose assay; assay type: cell-based; conditions: Homo sapiens, NCI-H522, Non-small cell lung cancer, read-out: Cell growth inhibition %
OVCAR-3 = assay: NCI one-dose assay; assay type: cell-based; conditions: Homo sapiens, OVCAR-3, Ovarian cancer, read-out: Cell growth inhibition %
RXF 393 = assay: NCI one-dose assay; assay type: cell-based; conditions: Homo sapiens, RXF 393, Renal cancer, read-out: Cell growth inhibition %
SF-268 = assay: NCI one-dose assay; assay type: cell-based; conditions: Homo sapiens, SF-268, CNS cancer, read-out: Cell growth inhibition %
SF-295 = assay: NCI one-dose assay; assay type: cell-based; conditions: Homo sapiens, SF-295, CNS cancer, read-out: Cell growth inhibition %
SF-539 = assay: NCI one-dose assay; assay type: cell-based; conditions: Homo sapiens, SF-539, CNS cancer, read-out: Cell growth inhibition %
SK-MEL-28 = assay: NCI one-dose assay; assay type: cell-based; conditions: Homo sapiens, SK-MEL-28, Melanoma, read-out: Cell growth inhibition %
SNB-19 = assay: NCI one-dose assay; assay type: cell-based; conditions: Homo sapiens, SNB-19, CNS cancer, read-out: Cell growth inhibition %
SR = assay: NCI one-dose assay; assay type: cell-based; conditions: Homo sapiens, Leukemia, read-out: Cell growth inhibition %
T-47D = assay: NCI one-dose assay; assay type: cell-based; conditions: Homo sapiens, T47D, Breast cancer, read-out: Cell growth inhibition %
U251 = assay: NCI one-dose assay; assay type: cell-based; conditions: Homo sapiens, U-251, U251, CNS cancer, read-out: Cell growth inhibition %
786-0 = assay: NCI one-dose assay; assay type: cell-based, human; conditions: Homo sapiens, 786-0, 786-0, Renal cancer, read-out: Cell growth inhibition %
Protocol: (§1) The National Cancer Institute (NCI), Bethesda, USA, selected the final compounds 6a–j and 7a–j for in vitro anticancer screening. An initial in vitro single-dose anticancer experiment was performed with the entire NCI 60 cell lines derived from nine tumor subpanel cancer cell lines. The results for each compound were illustrated as a mean graph showing the percentage growth of treated cells compared to untreated control cells (see Supplementary Materials).
(§2) The NCI anticancer screening process has been thoroughly detailed. The Drug Evaluation Branch of the National Cancer Institute in Bethesda, […], USA, established the procedure and conducted the anticancer assay on 60 human tumor cell lines from nine neoplastic cancers.

HOP-92 = assay: NCI one-dose assay; assay type: cell-based, human; conditions: for inhibition at 10 µM: Homo sapiens, HOP-92, HOP-92, Non-small cell lung cancer, read-out: Cell growth inhibition %
Protocol: as §1, §2

UO-31 = assay: NCI one-dose assay; assay type: cell-based, human; conditions: for inhibition at 10 µM: Homo sapiens, UO-31, UO-31, Renal cancer, read-out: Cell growth inhibition %; for Cell growth inhibition %: UO-31, Renal cancer, 10 µM
Protocol: as §1, §2

NCI 60 cell lines = assay: NCI one-dose assay, full panel; assay type: cell-based, human; conditions: across all cell lines, 10 µM
Protocol: as §1, §2

Row | SMILES | inhibition at 10 µM (A549/ATCC) [%] | inhibition at 10 µM (EKVX) [%] | inhibition at 10 µM (HOP-62) [%] | inhibition at 10 µM (HS 578 T) [%] | inhibition at 10 µM (IGROV1) [%] | inhibition at 10 µM (MCF7) [%] | inhibition at 10 µM (MDA-MB-435) [%] | inhibition at 10 µM (NCI-H226) [%] | inhibition at 10 µM (NCI-H522) [%] | inhibition at 10 µM (OVCAR-3) [%] | inhibition at 10 µM (RXF 393) [%] | inhibition at 10 µM (SF-268) [%] | inhibition at 10 µM (SF-295) [%] | inhibition at 10 µM (SF-539) [%] | inhibition at 10 µM (SK-MEL-28) [%] | inhibition at 10 µM (SNB-19) [%] | inhibition at 10 µM (SR) [%] | inhibition at 10 µM (T-47D) [%] | inhibition at 10 µM (U251) [%] | inhibition at 10 µM (786-0) [%] | also measured
1 | C=CCn1c(SCC(=O)c2ccccc2)nnc1-c1c[nH]c2ccccc12 [Compound 6a, 2-((4-Allyl-5-(1H-indol-3-yl)-4H-1,2,4-triazol-3-yl)thio)-1-phenylethanone] | -0.25 | 4.22 | 7.46 | 2.96 | 11.6 | 2.77 | -5.02 | 12.2 | 2.25 | -14.8 | -2.2 | -1.91 | 3.79 | 2.68 | -5.22 | 1.66 | 23.5 | 5.03 | -7.24 | -1.07 | inhibition at 10 µM (HOP-92): 18.7%; inhibition at 10 µM (UO-31): 35%; Cell growth inhibition % (UO-31): 34.27%
2 | C=CCn1c(SCC(=O)c2ccc(OC)cc2)nnc1-c1c[nH]c2ccccc12 [Compound 6b, 2-((4-Allyl-5-(1H-indol-3-yl)-4H-1,2,4-triazol-3-yl)thio)-1-(4-methoxyphenyl) Ethenone] | -8.47 | 3.03 | 6.07 | 0.85 | 11.1 | 5.93 | -8.45 | 7.5 | 0.49 | -16.9 | -5.88 | -8.99 | 2.91 | 1.18 | 1.56 | -1.42 | 18.5 | 11.1 | 2.31 | -1.31 | inhibition at 10 µM (HOP-92): 17.3%; inhibition at 10 µM (UO-31): 26.9%; anticancer activity (in words) (NCI 60 cell lines): minimal anticancer activity
3 | C=CCn1c(SCC(=O)c2ccc(C)cc2)nnc1-c1c[nH]c2ccccc12 [Compound 6c, 2-((4-allyl-5-(1H-indol-3-yl)-4H-1,2,4-triazol-3-yl)thio)-1-(p-tolyl)ethanone] | 5.97 | 8.94 | 9.23 | -2.83 | 19.6 | 9.88 | -2.15 | 17.1 | 4.55 | -13.1 | -0.07 | -3.82 | 3.28 | 1.45 | -4.91 | 3.56 | 8.97 | 9.92 | 6.75 | 2.26 | Cell growth inhibition % (HOP-92; HOP-92, Non-small cell lung cancer, 10 µM): 49.73%; inhibition at 10 µM (HOP-92): 50%; inhibition at 10 µM (UO-31): 29.7%
4 | C=CCn1c(SCC(=O)c2ccc(Br)cc2)nnc1-c1c[nH]c2ccccc12 [Compound 6d, 2-((4-Allyl-5-(1H-indol-3-yl)-4H-1,2,4-triazol-3-yl)thio)-1-(4-bromophenyl)ethenone] | -3.29 | 7.22 | -2.78 | -5.71 | 13.3 | 2.11 | -8.05 | 9.93 | 3.7 | -10.4 | -12.8 | -1.95 | 6.78 | 8.23 | 3.9 | -0.26 | 11.3 | 2.98 | 0.12 | 1.44 | inhibition at 10 µM (HOP-92): 8.6%; inhibition at 10 µM (UO-31): 31.6%; anticancer activity (in words) (NCI 60 cell lines): minimal anticancer activity
5 | C=CCn1c(SCC(=O)c2ccc(Cl)cc2)nnc1-c1c[nH]c2ccccc12 [Compound 6e, 2-((4-Allyl-5-(1H-indol-3-yl)-4H-1,2,4-triazol-3-yl)thio)-1-(4-chlorophenyl)ethenone] | 3.63 | 8.21 | 4.08 | -3.65 | 7.38 | 7.08 | -5.05 | 10.3 | 7.55 | -12.2 | -9.22 | -4.81 | 3.57 | 0.21 | -10.1 | 0.6 | 12.2 | 3.25 | 3.75 | 3.55 | inhibition at 10 µM (HOP-92): 21%; inhibition at 10 µM (UO-31): 28.5%; anticancer activity (in words) (NCI 60 cell lines): minimal anticancer activity
6 | C=CCn1c(SC/C(=N\O)c2ccccc2)nnc1-c1c[nH]c2ccccc12 [Compound 7a, (Z)-2-((4-Allyl-5-(1H-indol-3-yl)-4H-1,2,4-triazol-3-yl)thio)-1-phenylethanone Oxime] | -6.67 | 5.6 | 9.66 | 5.73 | 7.6 | -2.96 | -5.56 | 12.1 | 4.48 | -14.9 | -4.5 | -7.26 | 12.4 | 3.26 | -4.36 | 6.82 | -10.3 | 8.67 | 4.62 | 4.91 | inhibition at 10 µM (HOP-92): 5.05%; inhibition at 10 µM (UO-31): 20.9%; anticancer activity (in words) (NCI 60 cell lines): minimal anticancer activity
7 | C=CCn1c(SC/C(=N\O)c2ccc(C)cc2)nnc1-c1c[nH]c2ccccc12 [Compound 7c, (Z)-2-((4-allyl-5-(1H-indol-3-yl)-4H-1,2,4-triazol-3-yl)thio)-1-(p-tolyl)ethanone Oxime] | 4.9 | 17.7 | 8.72 | 6.55 | 23.2 | 11.9 | -2.07 | 23.1 | 14.6 | -6.11 | -5.46 | 3.63 | 15.1 | -1.42 | -5.62 | 8.04 | 16.5 | 26.5 | -2.94 | -2.2 | inhibition at 10 µM (HOP-92): 7.98%; inhibition at 10 µM (UO-31): 35%; Cell growth inhibition % (UO-31): 34.99%
